# Results reported in patent US20250049970A1, “DLL3 TARGETING PEPTIDES AND CONSTRUCTS THEREOF” (MARIANA ONCOLOGY INC., priority 2023, published 2025).
# *1 amine or outer side, *2 acyl side, *3 side chain or, on linkers, in order; H or OH if unused. Where a SMILES comes first, the peptide text is derived from it. Bridges are numbered along the chain shown (N, C = ends). Side-chain parts run from the residue outwards. [ ]: non-standard residue; d: D form. The star is where a group is joined. ξ: configuration not given here. Ala(1-CH2CO2H-4-piperidyl) = N[C@@H](CC1CCN(CC(=O)O)CC1)C(=O)O; Ala(piperidin-4-yl) = O=C([C@H](CC1CCN([*:3])CC1)N[*:1])[*:2]; DOTA = O=C(O)CN1CCN(CC(=O)O)CCN(CC(=O)*)CCN(CC(=O)O)CC1; Me3N+(CH2)2O(CH2)2O(CH2)2CO = C[N+](C)(C)CCOCCOCCC(=O)*; X3 = O=C([C@H](CC1CCN(CC(=O)[*:3])CC1)N[*:1])[*:2]; 2Nal = N[C@@H](Cc1ccc2ccccc2c1)C(=O)O; NMetBuAla = CN[C@@H](CC(C)(C)C)C(=O)O; Ethylenediamine = C(CN[*:2])N[*:1]; tBuAla = CC(C)(C)C[C@H](N)C(=O)O; Thr(3ξ) = CC(O)[C@H](N)C(=O)O; αMeP = C[C@@]1(C(=O)O)CCCN1; Nle = CCCC[C@H](N)C(=O)O; Nva = CCC[C@H](N)C(=O)O; CH2 = C([*:1])[*:2]
# T1: DLL3 (Homo sapiens, UniProt Q9NYJ7)
# T1 sequence (Q9NYJ7 27-618): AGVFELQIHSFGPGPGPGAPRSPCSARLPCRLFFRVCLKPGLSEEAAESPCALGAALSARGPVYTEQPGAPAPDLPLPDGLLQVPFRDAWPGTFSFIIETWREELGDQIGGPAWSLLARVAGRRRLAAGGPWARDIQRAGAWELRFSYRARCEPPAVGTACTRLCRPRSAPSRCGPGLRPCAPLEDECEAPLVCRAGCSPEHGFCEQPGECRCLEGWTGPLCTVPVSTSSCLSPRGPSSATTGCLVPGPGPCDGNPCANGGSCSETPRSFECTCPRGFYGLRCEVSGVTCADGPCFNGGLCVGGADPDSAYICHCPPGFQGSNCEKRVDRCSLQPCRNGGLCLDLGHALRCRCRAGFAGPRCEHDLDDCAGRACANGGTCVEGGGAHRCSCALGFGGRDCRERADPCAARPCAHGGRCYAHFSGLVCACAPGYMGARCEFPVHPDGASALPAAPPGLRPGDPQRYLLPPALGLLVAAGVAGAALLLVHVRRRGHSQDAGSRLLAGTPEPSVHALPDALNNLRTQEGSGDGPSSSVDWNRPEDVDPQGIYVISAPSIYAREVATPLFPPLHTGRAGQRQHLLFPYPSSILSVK
# T2: DLL3 (target ligand immobilized on a SA sensor chip via streptavidin capture) (Homo sapiens (Human), UniProt Q9NYJ7 27-492, limits assumed)
# T2 sequence: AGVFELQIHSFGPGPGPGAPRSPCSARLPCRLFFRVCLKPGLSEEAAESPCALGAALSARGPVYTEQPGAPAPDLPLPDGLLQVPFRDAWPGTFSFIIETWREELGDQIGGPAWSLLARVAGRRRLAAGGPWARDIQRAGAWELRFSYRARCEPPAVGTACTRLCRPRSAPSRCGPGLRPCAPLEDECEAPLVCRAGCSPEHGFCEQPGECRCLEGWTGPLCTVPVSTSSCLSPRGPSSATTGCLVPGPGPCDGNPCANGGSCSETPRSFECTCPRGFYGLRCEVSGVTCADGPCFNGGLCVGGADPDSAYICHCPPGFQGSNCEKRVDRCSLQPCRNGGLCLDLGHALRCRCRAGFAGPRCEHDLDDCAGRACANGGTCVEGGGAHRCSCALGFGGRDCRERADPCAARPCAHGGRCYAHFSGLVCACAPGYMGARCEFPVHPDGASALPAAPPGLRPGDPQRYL
# Experiments:
# [1] = tested on: nude mice bearing SHP-77 tumors; assay: Ex vivo biodistribution of radiolabeled peptides (% IA/g) in nude mice bearing SHP-77 tumors; details: [177Lu]Lu labelling, 24 hours post-injection, intravenous
# Procedure: Mice were intravenously injected (via the lateral tail vein) with a bolus dose of the radiolabeled peptides for ex vivo biodistribution studies when tumor volumes were in range of 200-400 mm^3 for xenograft mice and when age of the mice was 5-7 weeks for tumor naïve mice studies. To assess the amount of radionuclide injected into individual mice the syringe was assayed in a dose calibrator before and after injection for [^177Lu]Lu-peptide, then the injected dose was determined from the weight difference and concentration of the radionuclide solution.
# Mice were euthanized at pre-determined time points and selected tissues were resected and collected into pre-weighed tubes. The tubes were then reweighed post resection, the difference giving the weight of each tissue. Radioactivity in each tissue was measured using a gamma counter. Counts were decay corrected to the time of injection and percentage of injected activity per gram (% IA/g) was calculated for each tissue based on the injected activity into each individual mouse. Injected activity was converted to counts based on the sensitivity of the gamma counter. The counts in tissue were then converted to the percentage of injected activity and this was divided by the mass of tissue to give % IA/g.
# DLL3 = target: T1, DLL3; assay: SPR KD, biotinylated human DLL3 on streptavidin chip (Table 8); parameters: biotin (biotinylated); details: biotinylated human DLL3 on streptavidin sensor chip, 25° C., 1:1 binding model; read-out: SPR KD
# Description: Biotinylated target ligand human DLL3 was immobilized on a streptavidin sensor chip. A reference surface was set up for nonspecific binding and refractive index changes. […] Sensorgram curves were fitted with 1:1 binding model, and affinity and kinetic parameters were obtained using Biacore Insight evaluation 4.0. software.
# [2] = target: T2, DLL3 (target ligand immobilized on a SA …); assay: SPR, Biacore S200, target ligand on SA chip, 25 C, 1:1 fit
# Procedure: Target ligand was immobilized on a SA sensor chip via streptavidin capture. A reference surface was set up for nonspecific binding and refractive index changes. For analysis of the kinetics of interactions, varying concentrations of peptides were injected at a flow rate of 50 μL/minute using running buffer containing 20 mM phosphate buffer with 2.7 mM KCl, 137 mM NaCl and 0.05% Surfactant P20. Sensorgram curves were fitted with 1:1 binding model, and affinity and kinetic parameters were obtained using either Biacore S200 evaluation software 1.1.1 or Biacore Insight evaluation 4.0.
Molecule,kidney uptake (% IA/g) [1],tumor uptake (% IA/g) [1],Kd (DLL3) [nM],Kd [2] [nM]
"CCC[C@H](NC(C)=O)C(=O)N[C@@H](Cc1c[nH]c2ccccc12)C(=O)N[C@H](C(=O)N[C@H](C(=O)N[C@H]1CSSC[C@@H](C(=O)N[C@@H](Cc2c[nH]c3ccccc23)C(=O)N2CCC[C@H]2C(N)=O)NC(=O)[C@H](CC(=O)O)NC(=O)[C@H](Cc2cnc[nH]2)NC(=O)[C@H](Cc2c[nH]c3ccccc23)NC(=O)[C@H](CC(N)=O)NC(=O)[C@H](CC(N)=O)NC1=O)[C@@H](C)CC)[C@@H](C)O [compound 440, Ac-(L-Nva)-W-T-I-C(3)-N-N-W-H-D-C(3)-W-P-CONH2] (Ac-[Nva]WTICNNWHDCWP-NH2; disulfide 5-11)",,,10 to 100,
"CCCC[C@H](NC(C)=O)C(=O)N[C@@H](Cc1c[nH]c2ccccc12)C(=O)N[C@H](C(=O)N[C@H](C(=O)N[C@H]1CSSC[C@@H](C(=O)N[C@@H](Cc2c[nH]c3ccccc23)C(=O)N2CCC[C@H]2C(N)=O)NC(=O)[C@H](CC(=O)O)NC(=O)[C@H](Cc2cnc[nH]2)NC(=O)[C@H](Cc2c[nH]c3ccccc23)NC(=O)[C@H](CC(N)=O)NC(=O)[C@H](CC(N)=O)NC1=O)[C@@H](C)CC)[C@@H](C)O [compound 441, Ac-(L-Nle)-W-T-I-C(3)-N-N-W-H-D-C(3)-W-P-CONH2] (Ac-[Nle]WTICNNWHDCWP-NH2; disulfide 5-11)",,,10 to 100,
"CC(=O)N[C@@H](Cc1c[nH]c2ccccc12)C(=O)N[C@H](C(=O)N(C)[C@@H](CC(C)(C)C)C(=O)N[C@H]1CSCSC[C@@H](C(=O)N[C@@H](Cc2c[nH]c3ccccc23)C(=O)N2CCC[C@@]2(C)C(=O)O)NC(=O)[C@H](CC(=O)O)NC(=O)[C@H](CCCCNC(=O)CN2CCN(CC(=O)O)CCN(CC(=O)O)CCN(CC(=O)O)CC2)NC(=O)[C@H](Cc2ccc3ccccc3c2)NC(=O)[C@H](CC(N)=O)NC(=O)[C@H](CC2CCNCC2)NC1=O)C(C)O (stereo partly drawn) [compound 443, Ac-W-T-(NMe-tBuAla)-C(1)-[3-(4-piperidinyl)-Ala]-N-(2Nal)-Lys(DOTA)-D-C(1)-W-(aMe-P)-CO2H] (Ac-W[Thr(3ξ)][NMetBuAla]C[Ala(piperidin-4-yl)]N[2Nal]K(DOTA)DCW[αMeP]-OH; linker 4-10 via CH2)",C (“C” represents 0 < % IA/g ≤ 10 in),B (“B” represents % IA/g > 5 in tumor),< 1,
CC(=O)N[C@@H](Cc1c[nH]c2ccccc12)C(=O)N[C@H](C(=O)N(C)[C@@H](CC(C)(C)C)C(=O)N[C@H]1CSCSC[C@@H](C(=O)N[C@@H](Cc2c[nH]c3ccccc23)C(=O)N2CCC[C@H]2C(N)=O)NC(=O)[C@H](CC(=O)O)NC(=O)[C@H](CCCCNC(=O)CN2CCN(CC(=O)O)CCN(CC(=O)O)CCN(CC(=O)O)CC2)NC(=O)[C@H](Cc2ccc3ccccc3c2)NC(=O)[C@H](CC(N)=O)NC(=O)[C@H](CC2CCN(C(=O)CCOCCOCC[N+](C)(C)C)CC2)NC1=O)[C@@H](C)O [compound 448] (Ac-WT[NMetBuAla]C[Ala(piperidin-4-yl)](Me3N+(CH2)2O(CH2)2O(CH2)2CO)N[2Nal]K(DOTA)DCWP-NH2; linker 4-10 via CH2),,,< 1,

# Now from value to molecule:
kidney uptake (% IA/g) [1],tumor uptake (% IA/g) [1],Kd (DLL3) [nM],Kd [2] [nM],Molecule
C (“C” represents 0 < % IA/g ≤ 10 in),B (“B” represents % IA/g > 5 in tumor),< 1,,"CC(=O)N[C@@H](Cc1c[nH]c2ccccc12)C(=O)N[C@H](C(=O)N[C@@H](CC(C)(C)C)C(=O)N[C@H]1CSCSC[C@@H](C(=O)N[C@@H](Cc2c[nH]c3ccccc23)C(=O)N2CCC[C@@]2(C)C(N)=O)NC(=O)[C@H](CC(=O)O)NC(=O)[C@H](CCCCNC(=O)CN2CCN(CC(=O)O)CCN(CC(=O)O)CCN(CC(=O)O)CC2)NC(=O)[C@H](Cc2ccc3ccccc3c2)NC(=O)[C@H](CC(N)=O)NC(=O)[C@H](CC2CCNCC2)NC1=O)[C@@H](C)O [compound 437, Ac-W-T-(t-Bu-Ala)-C(1)-[3-(4-piperidinyl)-Ala]-N-(2Nal)-Lys(DOTA)-D-C(1)-W-(aMe-P)-CONH2] (Ac-WT[tBuAla]C[Ala(piperidin-4-yl)]N[2Nal]K(DOTA)DCW[αMeP]-NH2; linker 4-10 via CH2)"
,,< 1,,CC(=O)N[C@@H](Cc1c[nH]c2ccccc12)C(=O)N[C@H](C(=O)N(C)[C@@H](CC(C)(C)C)C(=O)N[C@H]1CSCSC[C@@H](C(=O)N[C@@H](Cc2c[nH]c3ccccc23)C(=O)N2CCC[C@H]2C(N)=O)NC(=O)[C@H](CC(=O)O)NC(=O)[C@H](CCCCNC(=O)CN2CCN(CC(=O)O)CCN(CC(=O)O)CCN(CC(=O)O)CC2)NC(=O)[C@H](Cc2ccc3ccccc3c2)NC(=O)[C@H](CC(N)=O)NC(=O)[C@H](CC2CCN(CC(=O)O)CC2)NC1=O)[C@@H](C)O [compound 447] (Ac-WT[NMetBuAla]C[Ala(1-CH2CO2H-4-piperidyl)]N[2Nal]K(DOTA)DCWP-NH2; linker 4-10 via CH2)
,,< 1,,CC(=O)N[C@@H](Cc1c[nH]c2ccccc12)C(=O)N[C@H](C(=O)N(C)[C@@H](CC(C)(C)C)C(=O)N[C@H]1CSCSC[C@@H](C(=O)N[C@@H](Cc2c[nH]c3ccccc23)C(=O)N2CCC[C@H]2C(N)=O)NC(=O)[C@H](CC(=O)O)NC(=O)[C@H](CCCCNC(=O)CN2CCN(CC(=O)O)CCN(CC(=O)O)CCN(CC(=O)O)CC2)NC(=O)[C@H](Cc2ccc3ccccc3c2)NC(=O)[C@H](CC(N)=O)NC(=O)[C@H](CC2CCN(CC(=O)NCCNC(=O)CN3CCN(CC(=O)O)CCN(CC(=O)O)CCN(CC(=O)O)CC3)CC2)NC1=O)[C@@H](C)O [compound 449] (Ac-WT[NMetBuAla]C[X3]([Ethylenediamine-DOTA])N[2Nal]K(DOTA)DCWP-NH2; linker 4-10 via CH2)
,,< 1,,"CCCCCCCCCCCCCCCC(=O)N[C@@H](CCC(=O)NCCOCCOCCOCCOCCOCCOCCOCCOCCOCCOCCOCCOCCOCCOCCOCCOCCOCCOCCOCCOCCOCCOCCOCCOCCC(=O)NCCCC[C@H](NC(=O)CN1CCC(C[C@@H]2NC(=O)[C@@H](NC(=O)[C@H](CC(C)(C)C)N(C)C(=O)[C@@H](NC(=O)[C@H](Cc3c[nH]c4ccccc34)NC(C)=O)[C@@H](C)O)CSCSC[C@@H](C(=O)N[C@@H](Cc3c[nH]c4ccccc34)C(=O)N3CCC[C@H]3C(N)=O)NC(=O)[C@H](CC(=O)O)NC(=O)[C@H](CCCCNC(=O)CN3CCN(CC(=O)O)CCN(CC(=O)O)CCN(CC(=O)O)CC3)NC(=O)[C@H](Cc3ccc4ccccc4c3)NC(=O)[C@H](CC(N)=O)NC2=O)CC1)C(=O)O)C(=O)O [compound 450, Ac-W-T-(NMe-tBuAla)-C(1)-[PipA(acetic-Lys-PEG24-gE-palmitoyl)]-N-(2Nal)-Lys(DOTA)-D-C(1)-W-P-CONH2]"
,,,72,Ac-MWTICADWAQCWP-NH2 (disulfide 5-11; SMILES CC[C@H](C)[C@H](NC(=O)[C@@H](NC(=O)[C@H](Cc1c[nH]c2ccccc12)NC(=O)[C@H](CCSC)NC(C)=O)[C@@H](C)O)C(=O)N[C@H]1CSSC[C@@H](C(=O)N[C@@H](Cc2c[nH]c3ccccc23)C(=O)N2CCC[C@H]2C(N)=O)NC(=O)[C@H](CCC(N)=O)NC(=O)[C@H](C)NC(=O)[C@H](Cc2c[nH]c3ccccc23)NC(=O)[C@H](CC(=O)O)NC(=O)[C@H](C)NC1=O) [SEQ ID NO 67]
